Data from PMC10049079, “Simulated Microgravity Alters P-Glycoprotein Efflux Function and Expression via the Wnt/β-Catenin Signaling Pathway in Rat Intestine and Brain” (International Journal of Molecular Sciences, 2023).
Read-outs that look alike come from different tables or passages of the source.

Legend:
[1] = tested on: rat ileum; assay: Rat single-pass intestinal perfusion (SPIP) of acetaminophen; type: in vivo; conditions: for Ka / Peff / Concentration: SPIP of ileum; for Concentration: perfusate 2.5 mg/mL AP
Description: At 1 h post-oral administration, all rats were anesthetized with urethane (1.75 g/kg) and placed in a supine position. Approximately 10 cm of ileum was separated from the intestinal segments. Tubes were carefully inserted at both ends of this segment and ligated with a sterile surgical line. The segment was rinsed with 37 °C Krebs–Ringer’s (KR) solution, balanced with KR solution (containing 2.5 mg/mL AP) at a flow rate of 0.2 mL/min for 15 min, and continuously perfused with KR solution (containing 2.5 mg/mL AP). The flow rate was set as 0.2 mL/min. The outflow perfusate was collected in a pre-weighed tube, which was changed quickly every 15 min and weighed. Six tubes of this fluid were collected for each rat. The perfusion solution and outflow perfusate were diluted in methanol–water (1:9, v:v) and analyzed using HPLC.
(§1) HPLC was performed on a Shimadzu LC-20AT HPLC system equipped with a UV detector (Shimadzu, Kyoto, Japan). Sample separation was conducted in a C18 column (5 μm, 4.6 × 150 mm). The mobile phases were methanol (A) and water (B) (1:9, v:v), and the flow rate was 1 mL/min. The volume of each sample injected into the HPLC system was 10 μL. The column temperature was maintained at 25 °C, and the detection wavelength was 275 nm. Ferulic acid (final concentration of 100 μg/mL) was used as an IS.

[2] = design: method as in earlier work; conditions: 21 and 28 days of SMG treatment in rats; cited from earlier work
[3] = Rat brain distribution of acetaminophen (Kp brain); type: in vivo; conditions: AP 1.2 g/kg oral, post-oral administration
Description: After 7 or 21 days of tail suspension, all rats were orally administered AP (1.2 g/kg). […] Rat brains were rapidly removed after perfusion with prechilled saline from rat hearts. Then, 0.1 mL of plasma from each rat was used to precipitate proteins with 300 μL of methanol. Approximately 0.1 g of the brain tissue of each rat was homogenized and ultrasonicated in 1 mL of methanol. The supernatant was removed and dried via vacuum centrifugation and reconstituted with methanol for HPLC. The brain distribution of AP was evaluated as the ratio of AP content in brain tissue (μg/g) to that in plasma (μg/mL).
as §1

[4] = cited from earlier work
[5] = tested on: Wnt/β-catenin signaling pathway; assay: Western-Blot of Wnt/β-catenin pathway proteins and P-gp in Caco-2 cells treated with FzM1.8; type: cell-based, human
Description: Caco-2 cells were purchased from the Chinese Academy of Sciences (Shanghai, China) and maintained in MEM/EBSS medium (Hyclone, UT, USA) supplemented with 10% fetal bovine serum (Sofar, Beijing, China), 1% penicillin–streptomycin liquid (Solarbio, Beijing, China), and 1% nonessential amino acids (Gibco, New York, NY, USA) in a humidified 5% CO2 atmosphere at 37 °C. The Caco-2 cells were seeded in a T-12.5 flask (2 × 10^4 cells/cm^2) and cultured for 21 days under normal gravity. The T-12.5 flask was filled with culture medium while preventing bubble formation and then exposed to SMG using random speed 3D clinostat (National Space Science Center, Beijing, China) for 12, 24, 48, and 72 h. The Caco-2 cells in the CON group were cultured under normal gravity in the same CO2 incubator.
(§2) FzM1.8 and IWP-O1 (Wnt/β-catenin signaling pathway-specific agonist and inhibitor, respectively) were dissolved in dimethyl sulfoxide (DMSO) and diluted with culture medium to obtain the desired concentrations. The final concentration of DMSO was 0.1%. FzM1.8 (2 μM) was added to the Caco-2 cells in the CON + FzM1.8 and SMG + FzM1.8 groups. IWP-O1 (1 nM) was added to the hCMEC/D3 cells in the CON + IWPO-1 and SMG + IWPO-1 groups. The cells in the SMG, SMG + FzM1.8, or SMG + IWPO-1 group were then exposed to SMG for 48 h.
(§3) Total proteins in the rat ileum mucosa and brain and Caco-2 and hCMEC/D3 cells were extracted using radio immunoprecipitation assay buffer containing protease inhibitors and protein phosphatase inhibitors. The supernatant was collected after centrifugation (12,000× g, 4 °C, and 10 min). The protein concentration was tested using Coomassie brilliant blue staining. The supernatant was mixed with 4× protein loading buffer containing dithiothreitol (Solarbio, Beijing, China) and […] in a boiling water bath for 10 min. […] The gray value of each band was collected using Image Lab^TM Software (version 3.0, Bio-Rad, Hercules, CA, USA), and the relative expression levels of proteins were expressed as the ratio of the gray value of the target band to the total proteins in the same lane.

[6] = tested on: Wnt/β-catenin signaling pathway; assay: Western-Blot of Wnt/β-catenin pathway proteins and P-gp in hCMEC/D3 cells treated with IWP-O1; type: cell-based, human
Description: The hCMEC/D3 cells were purchased from iCell Bioscience Inc. (Shanghai, China) and cultured in RPMI 1640 medium containing 1% penicillin–streptomycin liquid (Solarbio, Beijing, China) and 10% fetal bovine serum (Tianhang, Zhejiang, China) in the same environment as that of Caco-2 cells. The hCMEC/D3 cells were seeded at a density of 6 × 10^4 cells/cm^2 and cultured for 2 days under normal gravity. The flasks were then filled with culture medium and exposed to SMG using random speed 3D clinostat for 24, 48, and 72 h. The hCMEC/D3 cells in the CON group were cultured under normal gravity in the same CO2 incubator.
as §2, §3

[7] = tested on: P-gp; assay: Intracellular Rho123 fluorescence intensity in hCMEC/D3 cells (P-gp efflux function); type: cell-based, human; conditions: Rho123 2 μM for 0.5 h
Description: The cells were then washed with phosphate buffer saline (PBS) solution five times (2 mL each time) and treated with 2 mL of 0.1% Triton X-100 for 15 min. The cell solution was transferred to a black 96-well plate (Corning, NY, USA) with six wells in each group and 200 μL in each well after brief centrifugation. The fluorescence intensity of each well was detected using a microplate reader (BioTek, Thorold, ON, Canada). The excitation/emission wavelength of Rho123 was 485/535 nm. After 24, 48, or 72 h of SMG treatment, the hCMEC/D3 cells were treated with 2 mL of medium containing Rho123 (2 μM) for 0.5 h. Subsequent operations were performed in the same way as for Caco-2 cells.

[8] = tested on: P-gp; assay: Ratio of Rho123 concentration in rat brain and blood (P-gp efflux function in rat brain); type: in vivo; conditions: Rho123 0.5 mg/kg tail vein, 15 min post-injection
Description: After 45 min, the tail veins of all rats were injected with Rho123 (0.5 mg/kg, Solarbio, Beijing, China). At 15 min post-injection, all rats were anesthetized with chloral hydrate (350 mg/kg), and the blood was collected from the heart. After being subjected to transcardiac perfusion using the stroke-physiological saline solution from the heart, the brain samples of all rats were collected. In summary, 0.1 g of brain samples were homogenized with 0.4 mL of normal saline to obtain brain homogenate. Blank plasma and brain samples were collected from rats without a Rho123 injection and used to prepare Rho123 standard curve samples. The concentration of Rho123 in plasma and brain homogenate from all rats was detected by fluorescence intensity (λ excitation/λ emission = 485/535) using a microplate reader (BioTek, Thorold, ON, Canada). The Kp brain of Rho123 was used to evaluate P-gp efflux function.

[9] = 7 days CON + Ver (30 mg/kg oral) rats
[10] = 21 days CON + Ver (30 mg/kg oral) rats

## CC(=O)Nc1ccc(O)cc1 [AP, acetaminophen]
[1]; [9]
  Ka: 8.93 ± 0.37 * 10^−2 min^−1
  Peff: 10.77 ± 0.61 * 10^−3 cm/min
  Concentration: 1516 ± 52 µg/mL
[1]; 7 days CON rats
  Ka: 7.75 ± 0.11 10^−2 min^−1
  Peff: 8.86 ± 0.16 10^−3 cm/min
  Concentration: 1684 ± 15 µg/mL
[1]; 7 days SMG rats
  Ka: 8.55 ± 0.21 ** 10^−2 min^−1
  Peff: 10.11 ± 0.33 ** 10^−3 cm/min
  Concentration: 1571 ± 29 µg/mL
[1]; 7 days SMG vs CON
  Increase of Ka in rat ileum: 10.3%
  Increase of Peff in rat ileum: 14.1%
[1]; [10]
  Ka: 7.44 ± 0.18 ** 10^−2 min^−1
  Peff: 8.41 ± 0.25 ** 10^−3 cm/min
  Concentration: 1727 ± 25 µg/mL
[1]; 21 days CON rats
  Ka: 5.66 ± 0.19 10^−2 min^−1
  Peff: 6.01 ± 0.23 10^−3 cm/min
  Concentration: 1965 ± 33 µg/mL
[1]; 21 days SMG rats
  Ka: 8.76 ± 0.47 ** 10^−2 min^−1
  Peff: 10.47 ± 0.76 ** 10^−3 cm/min
  Concentration: 1540 ± 66 µg/mL
[1]; 21 days SMG vs CON
  Increase of Ka in rat ileum: 54.8%
  Increase of Peff in rat ileum: 74.2%
[2]
  Absorption under SMG: promoted
[3]; 7 days SMG vs CON
  Increase of brain-to-plasma concentration ratio (Kp brain): approximately 22.0%
[3]; 21 days SMG vs CON
  Increase of brain-to-plasma concentration ratio (Kp brain): 40.7%
[4]; 80 days of SMG treatment in humans
  Absorption under SMG: promoted
[4]; two astronauts, mission day 2 compared with before the flight
  Absorption in astronauts: increased

## O=C(Nc1cc(O)cc(C(=O)O)c1)Nc1ccc2ccccc2c1 [FzM1.8]
[5]; 2 μM before 48 h SMG, vs SMG group
  P-gp expression under SMG (Western-Blot): up-regulate
[5]; 2 μM, 48 h, vs CON group
  P-gp expression (Western-Blot): increased
  Wnt/β-catenin signaling pathway (Western-Blot): activated

## O=C(Cn1nnc(-c2ccncc2)c1-c1ccccc1)Nc1ccc(-c2ccccc2)cn1 [IWP-O1]
[6]; 1 nM before 48 h SMG, vs SMG group
  P-gp expression under SMG (Western-Blot): down-regulate
[6]; 1 nM, 48 h, vs CON group
  P-gp expression (Western-Blot): decreased
  Wnt/β-catenin signaling pathway (Western-Blot): inhibited

## COC(=O)c1ccccc1-c1c2ccc(=N)cc-2oc2cc(N)ccc12 [Rho123, rhodamine 123]
[7]; 48 h SMG vs CON
  Increase in fluorescence intensity of intracellular Rho123: 13.4%
[7]; 72 h SMG vs CON
  Increase in fluorescence intensity of intracellular Rho123: 16.7%
[8]; 7 days SMG vs CON
  Increase of ratio of Rho123 concentration in rat brain to that in the blood: 40.5%
[8]; 21 days SMG vs CON
  Increase of ratio of Rho123 concentration in rat brain to that in the blood: 173.8%

## CC(C)Cc1ccc(C(C)C(=O)O)cc1 (stereo not drawn) [ibuprofen]
[4]; in vivo, po
  Absorption in humans under SMG: promoted

## CC(CN1c2ccccc2Sc2ccccc21)N(C)C (stereo not drawn) [promethazine]
[4]; oral P-gp substrate drugs, humans under SMG
  Absorption in humans under SMG: promoted
